One data set addresses COX-1 (Homo sapiens, UniProt P23219). The experiment in a line: biochemical.

“And” between values parts separate entries of the source, which are not always exact repeats. Equal values may be shown once.

Chain of COX-1 (P23219 24-599): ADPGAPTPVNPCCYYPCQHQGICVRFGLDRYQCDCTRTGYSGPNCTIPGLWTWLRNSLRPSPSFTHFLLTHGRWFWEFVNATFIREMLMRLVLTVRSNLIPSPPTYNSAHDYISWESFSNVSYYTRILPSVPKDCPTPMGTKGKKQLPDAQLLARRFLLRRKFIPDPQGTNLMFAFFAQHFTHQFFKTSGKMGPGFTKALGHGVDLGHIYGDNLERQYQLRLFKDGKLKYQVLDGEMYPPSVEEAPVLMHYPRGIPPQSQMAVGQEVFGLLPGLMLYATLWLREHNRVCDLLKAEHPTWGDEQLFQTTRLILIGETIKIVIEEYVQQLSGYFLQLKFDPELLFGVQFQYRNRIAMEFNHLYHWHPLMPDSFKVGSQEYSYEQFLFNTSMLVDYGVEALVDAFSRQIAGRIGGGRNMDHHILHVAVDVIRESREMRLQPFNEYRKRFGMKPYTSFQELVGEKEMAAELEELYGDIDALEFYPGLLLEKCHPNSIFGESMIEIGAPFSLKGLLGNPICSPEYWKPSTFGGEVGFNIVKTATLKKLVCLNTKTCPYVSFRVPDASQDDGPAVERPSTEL
Protocol for COX-1: Evaluation of COX-1 and COX-2 Activity In Vitro
b. Assay for COX-1 and COX-2 Activity
COX activity was assayed as PGE2 formed/μg protein/time using an ELISA to detect the prostaglandin released. CHAPS-solubilized insect cell membranes containing the appropriate COX enzyme were incubated in a potassium phosphate buffer (50 mM, pH 8.0) containing epinephrine, phenol, and heme with the addition of arachidonic acid (10 μM). Compounds were pre-incubated with the enzyme for 10-20 minutes prior to the addition of arachidonic acid. […] The PGE2 formed was measured by standard ELISA technology (Cayman Chemical).

One may read the melting point as the temperature, or range, at which the solid turns liquid. For `CCc1c(Cl)ccc2c1C=C(C(=O)O)C(C(F)(F)F)O2` (stereo not drawn) [Example 873, 6-Chloro-5-ethyl-2-(trifluoromethyl)-2H-chromene-3-carboxylic acid], the melting point was in the range of 171.5 to 172.5 °C.

Consider `Nc1c(Cl)ccc2c1C=C(C(=O)O)C(C(F)(F)F)O2` (stereo not drawn) [Example 876, 5-Amino-6-chloro-2-(trifluoromethyl)-2H-chromene-3-carboxylic acid], for which the melting point fell in the range of 208.5 to 210 °C.

Turning to `O=C(O)C1=Cc2c(ccc(Cl)c2-c2ccsc2)OC1C(F)(F)F` (stereo not drawn) [Example 868, 6-Chloro-5-thien-3-yl-2-(trifluoromethyl)-2H-chromene-3-carboxylic acid], the melting point fell in the range of 211 to 213.5 °C.

`CC(C)c1cccc(-c2c(Cl)ccc3c2C=C(C(=O)O)C(C(F)(F)F)O3)c1` (stereo not drawn) [Example 871, 6-Chloro-5-(3-isopropylphenyl)-2-(trifluoromethyl)-2H-chromene-3-carboxylic acid] gave a melting point of 184 to 186.5 °C.

In general, IC50 refers to the concentration at which inhibition is half-maximal. The low end stands for greater potency, the high end for weaker potency. For `O=C(O)C1=Cc2cc(Cl)c(SCc3ccccc3)cc2OC1C(F)(F)F` (stereo not drawn) [Example 7e, 7-(benzylthio)-6-chloro-2-(trifluoromethyl)-2H-chromene-3-carboxylic acid], on COX-1, the half-inhibitory concentration (IC50) was more than 100 µM.

Take `O=C(O)C1=Cc2cc(Cl)c(N3CC=CCC3)cc2OC1C(F)(F)F` (stereo not drawn) [Example 8e, 6-chloro-7-(3,6-dihydropyridin-1(2H)-yl)-2-(trifluoromethyl)-2H-chromene-3-carboxylic acid]: the 50% inhibitory concentration (IC50) on COX-1 is > 100 µM and 130 µM.

As for `CCCCc1cc2c(cc1Cc1ccccc1)OC(C(F)(F)F)C(C(=O)O)=C2` (stereo not drawn) [Example 42d, 7-benzyl-6-butyl-2-(trifluoromethyl)-2H-chromene-3-carboxylic acid], inhibition against COX-1 was half-maximal at 58.3 µM (IC50).

As for `CCC(C)Sc1cc2c(cc1Cl)C=C(C(=O)O)C(C(F)(F)F)O2` (stereo not drawn) [Example 7g, 7-(sec-butylthio)-6-chloro-2-(trifluoromethyl)-2H-chromene-3-carboxylic acid], the 50% inhibitory concentration (IC50) at COX-1 is 7.2 µM and 6.35 µM.

Consider `O=C(O)C1=Cc2cc(Cl)c(Cc3ccc(Cl)cc3)cc2OC1C(F)(F)F` (stereo not drawn) [Example 9o, 6-chloro-7-(4-chlorobenzyl)-2-(trifluoromethyl)-2H-chromene-3-carboxylic], for which the half-maximal inhibitory concentration (IC50) against COX-1 is 9.67 µM and 12.1 µM.

Take `Cc1cc(Br)c2c(c1)C=C(C(=O)O)C(C(F)(F)F)N2` (stereo not drawn) [Example 46, 8-Bromo-6-methyl-2-(trifluoromethyl)-1,2-dihydroquinoline-3-carboxylic acid]: on COX-1, the IC50 is more than 100 µM.

With `Cc1ccc(Cc2cc3c(cc2Cl)C=C(C(=O)O)C(C(F)(F)F)O3)cc1` (stereo not drawn) [Example 9x, 6-chloro-7-(4-methylbenzyl)-2-(trifluoromethyl)-2H-chromene-3-carboxylic acid], the IC50 against COX-1 was 5.59 µM and 10.3 µM.

With `COc1cc(Cl)c2c(c1)C=C(C(=O)O)[C@@H](C(F)(F)F)O2` (single isomer, unassigned) [Example 17i], the concentration for half-maximal inhibition (IC50) against COX-1 was 81.1 µM and 36.4 µM.

As for `CCCC#Cc1cc(OC(F)(F)F)cc2c1OC(C(F)(F)F)C(C(=O)O)=C2` (stereo not drawn) [Example 21e, 8-pent-1-ynyl-6-(trifluoromethoxy)-2-(trifluoromethyl)-2H-chromene-3-carboxylic acid], the IC50 at COX-1 was 6.52 µM and 3.06 µM.

For the compound `CCC(CC)COc1c(Cl)cc2c(c1C)OC(C(F)(F)F)C(C(=O)O)=C2` (stereo not drawn) [Example 3b, 6-chloro-7-(2-ethylbutoxy)-8-methyl-2-(trifluoromethyl)-2H-chromene-3-carboxylic acid], the 50% inhibitory concentration (IC50) on COX-1 was 15.8 µM and 6.7 µM.

On to `COc1cc2c(cc1C(C)(C)C)OC(C(F)(F)F)C(C(=O)O)=C2` (stereo not drawn) [Example 112, 7-tert-butyl-6-methoxy-2-(trifluoromethyl)-2H-chromene-3-carboxylic acid], for which the half-inhibitory concentration (IC50) against COX-1 was more than 100 µM.

`CCCOc1cc(Cl)c2c(c1)C=C(C(=O)O)C(C(F)(F)F)O2` (stereo not drawn) [Example 17f, 8-chloro-6-propoxy-2-(trifluoromethyl)-2H-chromene-3-carboxylic acid]: the half-inhibitory concentration (IC50) at COX-1 was determined as 11.8 µM.

With `O=C(O)C1=Cc2c(Cl)ccc(OCc3ccccc3)c2OC1C(F)(F)F` (stereo not drawn) [Example 23c, 8-(benzyloxy)-5-chloro-2-(trifluoromethyl)-2H-chromene-3-carboxylic acid], on COX-1, the half-inhibitory concentration (IC50) is 48.4 µM and 62.6 µM.

As for `CCC(CC)COc1ccc(Cl)c2c1OC(C(F)(F)F)C(C(=O)O)=C2` (stereo not drawn) [Example 23b, 5-chloro-8-(2-ethylbutoxy)-2-(trifluoromethyl)-2H-chromene-3-carboxylic acid], the IC50 on COX-1 was 159 µM and > 100 µM.

In the case of `CC1CCCN(c2cc3c(cc2Cl)C=C(C(=O)O)C(C(F)(F)F)O3)C1` (stereo not drawn) [Example 8b, 6-chloro-7-(3-methylpiperidin-1-yl)-2-(trifluoromethyl)-2H-chromene-3-carboxylic acid], the IC50 on COX-1 was 99 µM and 189 µM.

As for `O=C(O)C1=Cc2cc(Br)c(Cc3ccccc3)cc2OC1C(F)(F)F` (stereo not drawn) [Example 41, 7-benzyl-6-bromo-2-(trifluoromethyl)-2H-chromene-3-carboxylic acid], at COX-1, the 50% inhibitory concentration (IC50) is 14.6 µM and 12.9 µM.

With `Cc1cc(Cl)c(C)c2c1OC(C(F)(F)F)C(C(=O)O)=C2` (stereo not drawn) [Example 105, 6-chloro-5,8-dimethyl-2-(trifluoromethyl)-2H-chromene-3-carboxylic acid], the IC50 against COX-1 was 3.32 µM and 2 µM.

For `C=C(C)C#Cc1cc(Cl)cc2c1OC(C(F)(F)F)C(C(=O)O)=C2` (stereo not drawn) [Example 36, 6-chloro-8-(3-methylbut-3-en-1-ynyl)-2-(trifluoromethyl)-2H-chromene-3-carboxylic acid], the IC50 on COX-1 is 78.5 µM and 52.3 µM.

Turning to `O=C(O)C1=Cc2ccc(C(=O)c3cccnc3)cc2OC1C(F)(F)F` (stereo not drawn) [Example 11, 7-(pyridin-3-ylcarbonyl)-2-(trifluoromethyl)-2H-chromene-3-carboxylic acid], the IC50 against COX-1 was more than 100 µM.

On COX-1, `CCOc1ccc(Br)c2c1OC(C(F)(F)F)C(C(=O)O)=C2` (stereo not drawn) [Example 24b, 5-bromo-8-ethoxy-2-(trifluoromethyl)-2H-chromene-3-carboxylic acid] gave an IC50 of more than 500 µM.

On to `CCCCc1cc2c(cc1Cl)C=C(C(=O)O)C(C(F)(F)F)O2` (stereo not drawn) [Example 9a, 7-butyl-6-chloro-2-(trifluoromethyl)-2H-chromene-3-carboxylic acid], for which the concentration for half-maximal inhibition (IC50) on COX-1 was 9.97 µM and 5.11 µM and 9.72 µM and 5.97 µM and 8.31 µM and 9.5 µM and > 1.2 µM.

Turning to `CCCN(CC1CC1)c1cc2c(cc1Cl)C=C(C(=O)O)C(C(F)(F)F)O2` (stereo not drawn) [Example 8g, 6-chloro-7-[(cyclopropylmethyl)(propyl)amino]-2-(trifluoromethyl)-2H-chromene-3-carboxylic acid], the IC50 at COX-1 was > 100 µM and 194 µM.

Consider `CCc1cc(OC(F)(F)F)cc2c1O[C@@H](C(F)(F)F)C(C(=O)O)=C2` (single isomer, unassigned) [Example 21l], for which the half-maximal inhibitory concentration (IC50) on COX-1 is > 100 µM and 115 µM and 49.6 µM.

`Cc1c(OCC(C)(C)C)c(Cl)cc2c1OC(C(F)(F)F)C(C(=O)O)=C2` (stereo not drawn) [Example 3g, 6-chloro-8-methyl-7-(neopentyloxy)-2-(trifluoromethyl)-2H-chromene-3-carboxylic acid]: at COX-1, the IC50 was 74.4 µM and 81.2 µM.

At COX-1, `CCCCc1cc(OC(F)(F)F)cc2c1OC(C(F)(F)F)C(C(=O)O)=C2` (stereo not drawn) [Example 21r, 8-butyl-6-(trifluoromethoxy)-2-(trifluoromethyl)-2H-chromene-3-carboxylic acid] came in with an IC50 of 83.8 µM.

As to `CCc1cc(OC(F)(F)F)cc2c1OC(C(F)(F)F)C(C(=O)O)=C2` (stereo not drawn) [Example 21g, 8-ethyl-6-(trifluoromethoxy)-2-(trifluoromethyl)-2H-chromene-3-carboxylic acid], the 50% inhibitory concentration (IC50) at COX-1 was 24.4 µM and 21.6 µM and 9.14 µM and 10.7 µM.

`CCC(CC)COc1ccc2c(c1C)OC(C(F)(F)F)C(C(=O)O)=C2` (stereo not drawn) [Example 5d, 7-(2-ethylbutoxy)-8-methyl-2-(trifluoromethyl)-2H-chromene-3-carboxylic acid]: the IC50 against COX-1 is 31.9 µM and 17.2 µM.

`O=C(O)C1=Cc2cccc(Oc3ccc([N+](=O)[O-])cc3F)c2OC1C(F)(F)F` (stereo not drawn) [Example 25a, 8-(2-fluoro-4-nitrophenoxy)-2-(trifluoromethyl)-2H-chromene-3-carboxylic acid] came in with an IC50 against COX-1 of more than 500 µM.

On to `Cc1cc(Cl)cc2c1NC(C(F)(F)F)C(C(=O)O)=C2` (stereo not drawn) [Example 47, 6-chloro-8-methyl-2-(trifluoromethyl)-1,2-dihydroquinoline-3-carboxylic acid], for which the IC50 on COX-1 was more than 500 µM.

The compound `CC(C)CN(C)c1c(Cl)cc2c(c1Cl)OC(C(F)(F)F)C(C(=O)O)=C2` (stereo not drawn) [Example 38a, 6,8-dichloro-7-[isobutyl(methyl)amino]-2-(trifluoromethyl)-2H-chromene-3-carboxylic acid] gave a concentration for half-maximal inhibition (IC50) at COX-1 of less than 0.137 µM.

`C=CCc1cc(OC(F)(F)F)cc2c1OC(C(F)(F)F)C(C(=O)O)=C2` (stereo not drawn) [Example 21s, 8-allyl-6-(trifluoromethoxy)-2-(trifluoromethyl)-2H-chromene-3-carboxylic acid]: the IC50 against COX-1 was > 100 µM and 119 µM.

In the case of `Cc1cc2c(cc1Cc1ccccc1)OC(C(F)(F)F)C(C(=O)O)=C2` (stereo not drawn) [Example 42a, 7-benzyl-6-methyl-2-(trifluoromethyl)-2H-chromene-3-carboxylic acid], the half-inhibitory concentration (IC50) at COX-1 is 28.7 µM and 25.2 µM and 14.7 µM.

With `Cc1ccc(Cc2cc3c(cc2Cl)C=C(C(=O)O)C(C(F)(F)F)O3)c(C)c1` (stereo not drawn) [Example 9s, 6-chloro-7-(2,4-dimethylbenzyl)-2-(trifluoromethyl)-2H-chromene-3-carboxylic acid], the IC50 against COX-1 is 5.85 µM and 5.72 µM.

Take `Nc1ccc(Oc2cccc3c2OC(C(F)(F)F)C(C(=O)O)=C3)c(F)c1` (stereo not drawn) [Example 25b, 8-(4-amino-2-fluorophenoxy)-2-(trifluoromethyl)-2H-chromene-3-carboxylic acid]: the concentration for half-maximal inhibition (IC50) against COX-1 was < 0.686 µM and < 0.137 µM and 0.14 µM.

As for `CCCCC(C)(C)c1cc2c(cc1Cl)C=C(C(=O)O)C(C(F)(F)F)O2` (stereo not drawn) [Example 110, 6-chloro-7-(1,1-dimethylpentyl)-2-(trifluoromethyl)-2H-chromene-3-carboxylic acid], on COX-1, the half-maximal inhibitory concentration (IC50) was 16.1 µM and 13.1 µM.

`CC(c1ccccc1)c1ccc2c(c1)OC(C(F)(F)F)C(C(=O)O)=C2` (stereo not drawn) [Example 37b, 7-(1-phenylethyl)-2-(trifluoromethyl)-2H-chromene-3-carboxylic acid] had an IC50 at COX-1 of more than 100 µM.

In turn, `Cc1ccc(Cc2cc3c(cc2Cl)C=C(C(=O)O)C(C(F)(F)F)O3)c(C)c1Cl` (stereo not drawn) [Example 9u, 6-chloro-7-(3-chloro-2,4-dimethylbenzyl)-2-(trifluoromethyl)-2H-chromene-3-carboxylic acid] yielded an IC50 against COX-1 of 5.52 µM.

For the compound `CCCCOc1c(Cl)cc2c(c1C)OC(C(F)(F)F)C(C(=O)O)=C2` (stereo not drawn) [Example 3f, 7-butoxy-6-chloro-8-methyl-2-(trifluoromethyl)-2H-chromene-3-carboxylic acid], on COX-1, the IC50 is 7.09 µM and 9.55 µM and 9.09 µM.

For the origin of these results see patent US20050148627A1, “Benzopyran compounds for use in the treatment and prevention of inflammation related conditions” (priority 2003, published 2005).
